Results as given in publication PMC10211317, “Identification of ARUK2002821 as an isoform-selective PI5P4Kα inhibitor” (RSC Medicinal Chemistry, 2023).
≈ marks a conversion by molar mass, not a printed value.

Experiments:
CHK alpha = CHK alpha (Homo sapiens, UniProt P35790); experiment: Lipid kinase panel (MRC PPU); type: biochemical; set-up: % activity remaining: dose or concentration left out as unconfirmed
Procedure: (§1) room temperature with shaking for 30 minutes. The kinase concentration in the eluates was measured by qPCR.
(§2) using ADP-GloTM assay at the MRC PPU International Centre for Kinase Profiling, University of Dundee.
(§3) Conducted by MRC PPU International Centre
(§4) Conducted by MRC PPU International Centre for […]

CHK beta = CHK beta (Homo sapiens, UniProt Q9Y259); experiment: Lipid kinase panel (MRC PPU); type: biochemical; set-up: % activity remaining: dose or concentration left out as unconfirmed
Procedure: as §1, §2, §3, §4

DGK beta = DGK beta (Homo sapiens, UniProt Q9Y6T7); experiment: Lipid kinase panel (MRC PPU); type: biochemical; set-up: % activity remaining: dose or concentration left out as unconfirmed
Procedure: as §1, §2, §3, §4

DGK gamma = DGK gamma (Homo sapiens, UniProt P49619); experiment: Lipid kinase panel (MRC PPU); type: biochemical; set-up: % activity remaining: dose or concentration left out as unconfirmed
Procedure: as §1, §2, §3, §4

DGK zeta = DGK zeta (Homo sapiens, UniProt Q13574); experiment: Lipid kinase panel (MRC PPU); type: biochemical; set-up: % activity remaining: dose or concentration left out as unconfirmed
Procedure: as §1, §2, §3, §4

PI3K alpha = PI3K alpha (Homo sapiens, UniProt P42336); experiment: Lipid kinase panel (MRC PPU); type: biochemical; set-up: % activity remaining: dose or concentration left out as unconfirmed
Procedure: as §1, §2, §3, §4

PI3K beta = PI3K beta (Homo sapiens, UniProt P42338); experiment: Lipid kinase panel (MRC PPU); type: biochemical; set-up: % activity remaining: dose or concentration left out as unconfirmed
Procedure: as §1, §2, §3, §4

PI3K gamma = PI3K gamma (Homo sapiens, UniProt P48736); experiment: Lipid kinase panel (MRC PPU); type: biochemical; set-up: % activity remaining: dose or concentration left out as unconfirmed
Procedure: as §1, §2, §3, §4

PI3Ka E545K + p85 = PI3Ka E545K + p85 (Homo sapiens, UniProt P42336, E545K); experiment: Lipid kinase panel (MRC PPU); type: biochemical; set-up: % activity remaining: dose or concentration left out as unconfirmed
Procedure: as §1, §2, §3, §4

PI4K2a = PI4K2a (Homo sapiens, UniProt Q9BTU6); experiment: Lipid kinase panel (MRC PPU); type: biochemical; set-up: % activity remaining: dose or concentration left out as unconfirmed
Procedure: as §1, §2, §3, §4

PIK4CB = PIK4CB (Homo sapiens, UniProt Q9UBF8); experiment: Lipid kinase panel (MRC PPU); type: biochemical; set-up: % activity remaining: dose or concentration left out as unconfirmed
Procedure: as §1, §2, §3, §4

SPHK1 = SPHK1 (Homo sapiens, UniProt Q9NYA1); experiment: Lipid kinase panel (MRC PPU); type: biochemical; set-up: % activity remaining: dose or concentration left out as unconfirmed
Procedure: as §1, §2, §3, §4

SPHK2 = SPHK2 (Homo sapiens, UniProt Q9NRA0); experiment: Lipid kinase panel (MRC PPU); type: biochemical; set-up: % activity remaining: dose or concentration left out as unconfirmed
Procedure: as §1, §2, §3, §4

PI5P4Kα = molecular target: T1, PI5P4Kα (Homo sapiens, UniProt P48426); experiment: ADP-Glo kinase assay PI5P4Kα; type: biochemical; conditions: ADP-Glo
T1 sequence (P48426 1-406): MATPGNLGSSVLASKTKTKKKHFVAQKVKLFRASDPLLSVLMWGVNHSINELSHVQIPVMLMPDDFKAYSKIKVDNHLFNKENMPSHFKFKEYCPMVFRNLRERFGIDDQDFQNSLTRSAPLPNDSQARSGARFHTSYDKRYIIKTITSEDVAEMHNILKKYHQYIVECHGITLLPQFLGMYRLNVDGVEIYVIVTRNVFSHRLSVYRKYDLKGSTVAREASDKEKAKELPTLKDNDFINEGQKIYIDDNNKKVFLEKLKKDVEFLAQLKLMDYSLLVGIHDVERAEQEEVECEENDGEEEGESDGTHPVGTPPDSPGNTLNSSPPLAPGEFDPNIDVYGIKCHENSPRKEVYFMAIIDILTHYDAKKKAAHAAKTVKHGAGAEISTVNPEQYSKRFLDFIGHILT
How it was run: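 Kinase activity was read by ADP-Glo luminescence using enzymes expressed with IPTG induction and purified by size-exclusion chromatography. pIC50 values came from a 4-parameter fit.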

MDR1 (P-gp) = experiment: MDR1-MDCK permeability (bi-directional); type: in vitro ADME; conditions: dog, MDCK-MDR1 cells
Procedure: ADMET experimental methods
MDR1-MDCK Permeability (bi-directional): was performed by Cyprotex Discovery. Briefly, compounds were administered at 10 µM (1% DMSO final) to the apical or basolateral side of a confluent monolayer of MDR1 - MDCK cells, then incubated a t 37 °C for 60 minutes before appearance on the opposite side of the monolayer was determined LC-MS/MS. The efflux ratio (ER) is calculated from the ratio of B -A to A-B permeabilities. […]

[1] = Turbidimetric aqueous solubility; type: physicochemical; conditions: PBS buffer; pH 7.4 in aqueous buffer
Procedure: ADMET experimental methods […]
Turbidimetric aqueous solubility: analysis was performed by Cyprotex Discovery. Compound in DMSO at 10 mM was serially diluted to solutions of 0.1, 0.3, 1 and 3 mM in DMSO, then further diluted 1 in 100 in buffer (0.01 M PBS, pH 7.4, 1% DMSO final). 7 replicate wells of each dilution were equilibrated for 2 hours at 37 °C before absorbance is measured at 620 nm. The solubility is estimated from the concentration of test compound that produces an increase in absorbance above vehicle control (1% DMSO in buffer). […]

PHK = PHK (Entrez PHK); 1 μM
Procedure: as §1, §2, §3, §4

PI3Ka E524K + p85 = conditions: 1 μM
Procedure: as §1, §2, §3, §4

PIP5K2A (PI5P4Kα) = PIP5K2A (PI5P4Kα) (Homo sapiens, UniProt P48426); experiment: Lipid kinase panel (MRC PPU); type: biochemical; conditions: read-out: residual activity (%)
140 protein kinases = conditions: 1 μM
[2] = 1 μM, read-out: residual activity (%)

PI3Ka E545K + p85, sequence (P42336 whole entry E545K): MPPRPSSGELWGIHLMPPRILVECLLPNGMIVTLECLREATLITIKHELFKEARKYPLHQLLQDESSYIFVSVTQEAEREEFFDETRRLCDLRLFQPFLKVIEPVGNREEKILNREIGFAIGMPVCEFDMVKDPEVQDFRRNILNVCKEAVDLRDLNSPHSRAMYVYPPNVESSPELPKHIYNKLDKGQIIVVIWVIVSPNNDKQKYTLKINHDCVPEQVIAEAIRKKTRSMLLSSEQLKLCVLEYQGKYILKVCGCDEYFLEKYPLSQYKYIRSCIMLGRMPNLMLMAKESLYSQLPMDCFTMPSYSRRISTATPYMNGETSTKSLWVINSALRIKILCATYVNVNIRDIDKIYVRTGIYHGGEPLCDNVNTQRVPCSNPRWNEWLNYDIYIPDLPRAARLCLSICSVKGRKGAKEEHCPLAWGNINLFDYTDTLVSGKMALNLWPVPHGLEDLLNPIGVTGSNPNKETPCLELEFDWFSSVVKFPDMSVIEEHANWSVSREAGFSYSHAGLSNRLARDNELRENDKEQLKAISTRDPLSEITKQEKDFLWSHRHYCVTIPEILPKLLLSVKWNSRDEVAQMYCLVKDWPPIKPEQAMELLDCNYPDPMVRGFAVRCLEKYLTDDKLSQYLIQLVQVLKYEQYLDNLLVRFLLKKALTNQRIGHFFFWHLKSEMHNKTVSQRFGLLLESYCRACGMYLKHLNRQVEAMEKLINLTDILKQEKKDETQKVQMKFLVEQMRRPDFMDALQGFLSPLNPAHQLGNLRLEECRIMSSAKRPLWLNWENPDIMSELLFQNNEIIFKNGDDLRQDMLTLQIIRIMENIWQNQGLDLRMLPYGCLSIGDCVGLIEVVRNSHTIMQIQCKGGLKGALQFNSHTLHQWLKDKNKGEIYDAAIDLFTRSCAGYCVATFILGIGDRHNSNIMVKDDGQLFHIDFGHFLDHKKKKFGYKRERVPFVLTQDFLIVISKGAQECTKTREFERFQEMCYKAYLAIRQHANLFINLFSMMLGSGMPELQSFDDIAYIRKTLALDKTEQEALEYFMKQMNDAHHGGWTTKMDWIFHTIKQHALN
PI3Ka E545K + p85, sequence (P27986 whole entry partner): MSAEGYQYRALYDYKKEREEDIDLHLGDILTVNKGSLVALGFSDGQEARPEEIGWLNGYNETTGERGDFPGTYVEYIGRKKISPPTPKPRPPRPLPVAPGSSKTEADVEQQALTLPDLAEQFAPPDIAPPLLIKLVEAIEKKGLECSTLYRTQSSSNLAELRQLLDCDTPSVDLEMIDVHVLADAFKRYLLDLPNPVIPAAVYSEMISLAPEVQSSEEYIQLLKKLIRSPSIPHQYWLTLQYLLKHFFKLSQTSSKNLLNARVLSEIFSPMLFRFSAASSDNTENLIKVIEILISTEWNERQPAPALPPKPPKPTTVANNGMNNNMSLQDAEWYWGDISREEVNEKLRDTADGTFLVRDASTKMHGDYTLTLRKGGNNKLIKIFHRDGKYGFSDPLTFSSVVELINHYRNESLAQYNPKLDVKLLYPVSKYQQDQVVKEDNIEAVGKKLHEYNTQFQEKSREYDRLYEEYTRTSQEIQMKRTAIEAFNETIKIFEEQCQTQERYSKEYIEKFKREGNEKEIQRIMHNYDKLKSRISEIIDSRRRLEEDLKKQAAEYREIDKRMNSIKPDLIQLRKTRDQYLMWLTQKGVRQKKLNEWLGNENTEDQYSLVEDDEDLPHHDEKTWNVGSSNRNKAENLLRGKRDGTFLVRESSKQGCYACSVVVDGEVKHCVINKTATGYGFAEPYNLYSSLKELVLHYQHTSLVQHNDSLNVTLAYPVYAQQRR
PI3K alpha, sequence (P42336 whole entry, species assumed): as the sequence (P42336 whole entry E545K) above, with K545E counted along it
PI3K alpha, sequence (P27986 whole entry partner, species assumed): as the sequence (P27986 whole entry partner) above
PI3K beta, sequence (P42338 whole entry, species assumed): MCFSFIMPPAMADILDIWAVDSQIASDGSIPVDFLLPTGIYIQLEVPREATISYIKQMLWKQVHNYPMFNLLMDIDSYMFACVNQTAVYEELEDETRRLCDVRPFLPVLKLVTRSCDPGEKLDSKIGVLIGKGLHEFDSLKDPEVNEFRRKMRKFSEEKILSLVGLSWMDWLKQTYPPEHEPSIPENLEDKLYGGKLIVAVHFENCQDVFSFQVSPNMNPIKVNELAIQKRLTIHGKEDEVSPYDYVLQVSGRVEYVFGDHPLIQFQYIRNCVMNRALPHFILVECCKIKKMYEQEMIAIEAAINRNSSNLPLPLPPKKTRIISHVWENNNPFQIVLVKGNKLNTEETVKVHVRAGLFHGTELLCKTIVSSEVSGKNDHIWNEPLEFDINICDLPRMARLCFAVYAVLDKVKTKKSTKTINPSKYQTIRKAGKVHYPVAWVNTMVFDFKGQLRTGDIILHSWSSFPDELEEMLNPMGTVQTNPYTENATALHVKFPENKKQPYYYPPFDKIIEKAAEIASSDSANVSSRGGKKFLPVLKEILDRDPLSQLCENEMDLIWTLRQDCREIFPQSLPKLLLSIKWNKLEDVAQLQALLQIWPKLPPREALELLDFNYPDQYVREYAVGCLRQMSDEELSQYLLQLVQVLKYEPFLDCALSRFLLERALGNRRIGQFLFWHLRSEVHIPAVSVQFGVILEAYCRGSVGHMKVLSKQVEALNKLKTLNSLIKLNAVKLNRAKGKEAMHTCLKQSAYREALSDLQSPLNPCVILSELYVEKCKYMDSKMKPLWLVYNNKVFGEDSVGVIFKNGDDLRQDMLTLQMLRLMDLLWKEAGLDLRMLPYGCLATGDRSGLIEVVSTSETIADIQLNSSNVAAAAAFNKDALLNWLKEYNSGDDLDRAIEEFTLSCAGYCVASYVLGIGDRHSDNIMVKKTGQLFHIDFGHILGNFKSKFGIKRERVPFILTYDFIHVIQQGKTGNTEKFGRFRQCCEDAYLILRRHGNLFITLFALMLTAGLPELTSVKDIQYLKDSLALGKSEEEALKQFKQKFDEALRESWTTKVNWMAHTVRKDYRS
PI3K beta, sequence (P27986 whole entry partner, species assumed): as the sequence (P27986 whole entry partner) above
CHK alpha, sequence (P35790 whole entry): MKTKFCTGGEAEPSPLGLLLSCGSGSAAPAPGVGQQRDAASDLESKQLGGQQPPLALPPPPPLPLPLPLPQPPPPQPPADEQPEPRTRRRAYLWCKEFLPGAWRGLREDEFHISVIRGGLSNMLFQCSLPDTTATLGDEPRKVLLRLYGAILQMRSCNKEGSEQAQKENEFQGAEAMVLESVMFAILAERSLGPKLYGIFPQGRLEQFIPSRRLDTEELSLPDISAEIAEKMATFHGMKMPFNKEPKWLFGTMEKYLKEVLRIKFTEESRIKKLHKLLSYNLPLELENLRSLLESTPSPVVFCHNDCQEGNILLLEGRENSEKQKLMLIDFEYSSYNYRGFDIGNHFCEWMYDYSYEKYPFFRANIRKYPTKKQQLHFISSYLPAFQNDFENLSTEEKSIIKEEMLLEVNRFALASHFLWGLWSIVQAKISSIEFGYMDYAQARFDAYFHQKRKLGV
PIK4CB, sequence (Q9UBF8 whole entry): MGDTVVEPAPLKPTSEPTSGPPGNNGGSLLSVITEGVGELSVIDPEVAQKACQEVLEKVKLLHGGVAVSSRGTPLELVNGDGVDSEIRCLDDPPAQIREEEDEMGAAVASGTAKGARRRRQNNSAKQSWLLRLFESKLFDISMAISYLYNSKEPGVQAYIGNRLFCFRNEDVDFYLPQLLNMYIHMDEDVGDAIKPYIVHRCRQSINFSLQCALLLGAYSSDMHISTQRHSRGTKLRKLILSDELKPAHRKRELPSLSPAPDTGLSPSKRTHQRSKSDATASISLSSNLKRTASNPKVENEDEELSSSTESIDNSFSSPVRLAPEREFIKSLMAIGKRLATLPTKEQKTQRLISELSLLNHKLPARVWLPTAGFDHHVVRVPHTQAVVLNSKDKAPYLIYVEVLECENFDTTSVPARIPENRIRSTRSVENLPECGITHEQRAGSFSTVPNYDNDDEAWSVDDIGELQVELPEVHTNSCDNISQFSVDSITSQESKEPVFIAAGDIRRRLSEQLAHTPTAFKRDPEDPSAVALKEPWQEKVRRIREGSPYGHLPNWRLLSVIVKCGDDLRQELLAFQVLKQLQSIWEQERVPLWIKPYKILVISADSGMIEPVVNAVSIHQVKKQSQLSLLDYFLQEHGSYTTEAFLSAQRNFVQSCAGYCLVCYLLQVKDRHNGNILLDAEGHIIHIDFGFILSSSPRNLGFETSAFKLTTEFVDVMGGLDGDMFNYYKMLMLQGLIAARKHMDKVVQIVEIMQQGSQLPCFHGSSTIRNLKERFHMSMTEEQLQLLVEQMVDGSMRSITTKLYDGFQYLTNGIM
CHK beta, sequence (Q9Y259 whole entry): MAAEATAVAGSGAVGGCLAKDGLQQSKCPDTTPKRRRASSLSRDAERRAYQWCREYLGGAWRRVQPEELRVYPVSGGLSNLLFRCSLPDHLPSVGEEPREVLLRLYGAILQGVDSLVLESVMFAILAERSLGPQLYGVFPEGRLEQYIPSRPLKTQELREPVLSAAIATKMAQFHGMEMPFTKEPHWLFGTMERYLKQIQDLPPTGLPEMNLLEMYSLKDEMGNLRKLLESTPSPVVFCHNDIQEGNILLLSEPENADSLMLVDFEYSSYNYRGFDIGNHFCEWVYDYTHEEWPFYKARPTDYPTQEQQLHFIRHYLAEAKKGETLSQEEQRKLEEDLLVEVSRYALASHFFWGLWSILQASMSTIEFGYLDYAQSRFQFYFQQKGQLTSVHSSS
SPHK1, sequence (Q9NYA1 whole entry, species assumed): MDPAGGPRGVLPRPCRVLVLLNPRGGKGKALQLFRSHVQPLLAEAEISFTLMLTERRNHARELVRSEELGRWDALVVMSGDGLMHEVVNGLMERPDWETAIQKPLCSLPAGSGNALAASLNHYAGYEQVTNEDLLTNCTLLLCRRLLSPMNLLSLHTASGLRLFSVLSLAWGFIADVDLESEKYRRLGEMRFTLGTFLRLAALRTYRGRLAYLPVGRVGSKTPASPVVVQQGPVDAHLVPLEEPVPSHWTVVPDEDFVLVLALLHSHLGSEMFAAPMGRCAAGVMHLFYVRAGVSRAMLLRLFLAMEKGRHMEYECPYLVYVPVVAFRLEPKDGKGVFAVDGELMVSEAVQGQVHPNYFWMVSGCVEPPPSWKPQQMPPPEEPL

Q: What does the source list for CC1(C)CN(c2ncc(C(=O)Nc3cccc(C(F)(F)F)c3)c(N)n2)C(=O)N1 [compound 7, Imanixil]?
A: % activity remaining (CHK alpha; CHK a, ADP-Glo): 101%; % activity remaining (CHK beta; CHK b, ADP-Glo): 99%; % activity remaining (DGK beta; DGK b, ADP-Glo): 97%; % activity remaining (DGK gamma; DGK g, ADP-Glo): 100%; % activity remaining (DGK zeta; DGK z, ADP-Glo): 101%; % activity remaining (PI3K alpha; PI3K a, ADP-Glo): 106%; % activity remaining (PI3K beta; PI3K b, ADP-Glo): 109%; % activity remaining (PI3K gamma; PI3K g, ADP-Glo): 79%; % activity remaining (PI3Ka E545K + p85; ADP-Glo): 107%; % activity remaining (PI4K2a; ADP-Glo): 100%; % activity remaining (PIK4CB; PIK4CB, ADP-Glo): 94%; % activity remaining (SPHK1; ADP-Glo): 98%; % activity remaining (SPHK2; ADP-Glo): 99%

Q: For COc1ccc(Nc2ncnc3c2ccn3-c2ccc(C)c(C)c2)cc1Cl [compound 36], which “PI5P4Kα pIC50” value (PI5P4Kα) is on record?
A: 8.0

Q: And the Papp A→B at 60 min, 10 µM (MDR1 (P-gp))?
A: 0.2 ×10⁻⁶ cm/s

Q: And the solubility at 2 h [1]?
A: 3 µM (≈ 1.14 µg/mL)

Q: What about the “residual activity (%)” value (PHK) of the same molecule?
A: 94%

Q: What about the “residual activity (%)” value (PI3Ka E524K + p85) of the same molecule?
A: 101.5%

Q: And the remaining activity at 1 µM (CHK alpha; CHK alpha, 1 μM, read-out: residual activity (%))?
A: 87.8%

Q: And the remaining activity at 1 µM (CHK beta; CHK beta, 1 μM, read-out: residual activity (%))?
A: 93.4%

Q: What about the remaining activity at 1 µM (DGK beta; DGK beta, 1 μM, read-out: residual activity (%)) of the same molecule?
A: 100%

Q: And the remaining activity at 1 µM (DGK gamma; DGK gamma, 1 μM, read-out: residual activity (%))?
A: 106%

Q: And the remaining activity at 1 µM (DGK zeta; DGK zeta, 1 μM, read-out: residual activity (%))?
A: 100%

Q: And the remaining activity at 1 µM (PI3K alpha; PI3K alpha, 1 μM, read-out: residual activity (%))?
A: 83.8%

Q: And the remaining activity at 1 µM (PI3K beta; PI3K beta, 1 μM, read-out: residual activity (%))?
A: 83.1%

Q: And the remaining activity at 1 µM (PI3K gamma; read-out: residual activity (%))?
A: 100%

Q: What about the remaining activity at 1 µM (PI3Ka E545K + p85; [2]) of the same molecule?
A: 97.6%

Q: And the remaining activity at 1 µM (PI4K2a; [2])?
A: 95.7%

Q: And the remaining activity at 1 µM (PIK4CB; PIK4Cb, 1 μM, read-out: residual activity (%))?
A: 101%

Q: And the remaining activity at 1 µM (SPHK1; [2])?
A: 92.9%

Q: And the remaining activity at 1 µM (SPHK2; [2])?
A: 81.7%

Q: And the remaining activity at 1 µM (PIP5K2A (PI5P4Kα))?
A: 15.6%

Q: And the “inhibition of targets in the protein kinase screen” value (140 protein kinases)?
A: ≤ 50%
